Article PMC5908295 (Oncotarget, 2018)

How the values were obtained:
KG-1 (FLT3-WT) tumor = experiment: KG-1 subcutaneous xenograft; format: in vivo; conditions: KG-1, SCID mice; doses not given
Text: All animals were handled in strict accordance with good animal practice as defined by the relevant national and local animal welfare bodies. SCID and SCID/beige C.B-17 mice were provided by Harlan Laboratories or Charles River Laboratories, and were maintained in pathogen free conditions. For the xenograft experiments, age-matched (9-11 weeks old) females were used. 5×10^6 of MV-4-11 or MOLM-16 cells were suspended in a mixture (1:1, v:v) of PBS with Matrigel (BD Biosciences,) and injected subcutaneously (sc), in a total volume of 100 μL, above the groin on the right hind limb. For MOLM-13 and KG-1 cells, a mixture (3:1, v:v) of PBS and Matrigel HC (BD Bioscience,) was used to inject 5 × 10^6 of cell per mouse subcutaneously (sc), in a total volume of 100 μL. When tumors reached 100-130 mm^3, mice were randomized into uniform groups (6-9 mice per group) and subsequently administered the compound. […] At the end of the experiment, mice were anesthetized with isofluran and blood samples for total cell counts and biochemistry were obtained by retro-orbital bleeding. […] 5×10^6 cells suspended in a mixture (3:1, v:v) of PBS and Matrigel were injected as described above. […] Tumor volume was monitored every second day and calculated using the formula: TV = (a^2×b)/2, where “a” is the short axis in millimeters, and “b” is the long axis in millimeters. Body weight was assessed every day.

CYP2C9 = biological target: T1, CYP2C9 (Homo sapiens, UniProt P11712); experiment: CYP isoforms inhibition; format: in vitro ADME; conditions: 5-dose, 3-fold dilution starting at 30 µM
T1 construct: Cambridge Bioscience Limited (ran the assay)
Protocol: or absence of enzyme cofactors. The assay was performed microsomes. (Supplementary Table 7).
with the respective reference samples (i.e. without measured at Cambridge Bioscience Limited (except
cofactors). After incubation, drug transformation by liver CYP1A2 inhibition which was measured in-house). […]
The analysis of two standard compounds (i.e. positive a very weak potential for CYP inhibition with IC50
and negative controls) was included. […]

MV-4-11 = experiment: Drug interactions (combination index), MTS; format: cell-based; conditions: MV-4-11, broad range of concentrations
Protocol: and AC220 in AML cell lines was assessed using an MTS assay. Cells viability was measured after 72 h incubation with three-fold serial dilutions of compounds, starting at 10 µM concentration. Obtained data were presented as percentage of viable cells compared with control (untreated) cells viability. Error bars indicate SD.
11 cells. Combination index (CI) are shown on the Y axis and compound concentrations are shown on X and Z axes. Values […] and below 0.7- a synergy between tested compounds. Values above 1 indicate an antagonistic effect.
(1 picture or pasted object on this page, not shown here)

SKM-1 = experiment: MTS viability assay, 72 h; conditions: Homo sapiens, SKM-1, 72 h
Protocol: On the same day, 50 μL of medium containing tested inhibitor was added to the wells. Each compound was tested at 8 concentrations, in triplicates. As a negative control, the medium containing 0.1% DMSO was used. […] Staurosporine was used at 10 μM as a positive control. One the day of drug addition, basal signal from untreated cells was measured from in triplicate to determine time zero (T0). […] GI50 and LC50 values were extrapolated from a variable (four-parameter) dose-response curve fitted in GraphPad Prism.

PL-21 = experiment: MTS viability assay, 72 h; conditions: PL-21, 72 h
Protocol: 15-25 ×10^3 of MV-4-11, MOLM-13, MOLM-14, MOLM-16, KG-1, Eol-1, SKM-1, PL-21, GDM-1, SKNO-1, RS4;11, Kasumi-3 and Kasumi-6 cells were seeded in 150 μL of culture medium onto individual wells in a 96 well plates, in triplicates. On the same day, 50 μL of medium containing tested inhibitor was added to the wells. Each compound was tested at 8 concentrations, in triplicates. As a negative control, the medium containing 0.1% DMSO was used. […] Staurosporine was used at 10 μM as a positive control. One the day of drug addition, basal signal from untreated cells was measured from in triplicate to determine time zero (T0). […] GI50 and LC50 values were extrapolated from a variable (four-parameter) dose-response curve fitted in GraphPad Prism.

[1] = test system: S6 phosphorylation (Ser235/236) in MV-4-11 cells; experiment: S6 phosphorylation, Western blot; format: cell-based; conditions: Homo sapiens, MV4-11; MV-4-11, 4 hours; read-out: IC50 S6 phosphorylation (Ser235/236), Western blotting
Protocol: (§1) Cells were collected, washed twice with cold PBS, and lysed in RIPA buffer and kept on ice for 10 min. Tumor specimens from xenograft studies were homogenized in RIPA buffer using OMNI TH Tissue Homogenizer and kept on ice for 30 min. After incubation, cell and tumor lysates were centrifuged at 13,000×g at 4°C for 10 min and the supernatants were stored at −80°C until use. Protein concentration was measured using the Bradford method. For SDS-PAGE, 50 μg of protein in the Laemmli sample buffer was loaded onto 10% polyacrylamide gels and electrophoresed. Thereafter, proteins were transferred onto polyvinylidene fluoride (PVDF) membranes (Millipore). After blocking with 5% non-fat dry milk/TBS-T or 2% BSA/TBS-T, membranes were incubated with specific primary antibodies (listed in Supplementary Table 2) at 4 °C overnight. After extensive washing in PBS-T, membranes were incubated for 60 min with appropriate secondary peroxidase-conjugated IgG. The immunoreactive proteins were detected using an enhanced chemiluminescence (ECL) substrate (GE Healthcare) and visualized with Hyperfilm-ECL (GE Healthcare Biosciences).

[2] = test system: S6 phosphorylation (Ser235/236) in MOLM-13 cells; experiment: S6 phosphorylation, Western blot; format: cell-based; conditions: Homo sapiens; MOLM-13, 4 hours; read-out: IC50 S6 phosphorylation (Ser235/236), Western blotting
Protocol: as §1

[3] = test system: S6 phosphorylation (Ser235/236) in MOLM-16 cells; experiment: S6 phosphorylation, Western blot; format: cell-based; conditions: MOLM16; MOLM-16, 4 hours; read-out: IC50 S6 phosphorylation (Ser235/236), Western blotting
Protocol: as §1

[4] = test system: S6 phosphorylation (Ser235/236) in KG-1 cells; experiment: S6 phosphorylation, Western blot; format: cell-based; conditions: Homo sapiens; KG-1, 4 hours; read-out: IC50 S6 phosphorylation (Ser235/236), Western blotting
Protocol: as §1

MOLM-16 (FLT3-WT) tumor = experiment: MOLM-16 subcutaneous xenograft, single agent; format: in vivo, SCID/beige mice
Text: All animals were handled in strict accordance with good animal practice as defined by the relevant national and local animal welfare bodies. SCID and SCID/beige C.B-17 mice were provided by Harlan Laboratories or Charles River Laboratories, and were maintained in pathogen free conditions. For the xenograft experiments, age-matched (9-11 weeks old) females were used. 5×10^6 of MV-4-11 or MOLM-16 cells were suspended in a mixture (1:1, v:v) of PBS with Matrigel (BD Biosciences,) and injected subcutaneously (sc), in a total volume of 100 μL, above the groin on the right hind limb. For MOLM-13 and KG-1 cells, a mixture (3:1, v:v) of PBS and Matrigel HC (BD Bioscience,) was used to inject 5 × 10^6 of cell per mouse subcutaneously (sc), in a total volume of 100 μL. When tumors reached 100-130 mm^3, mice were randomized into uniform groups (6-9 mice per group) and subsequently administered the compound. […] At the end of the experiment, mice were anesthetized with isofluran and blood samples for total cell counts and biochemistry were obtained by retro-orbital bleeding. […] 5×10^6 cells suspended in a mixture (3:1, v:v) of PBS and Matrigel were injected as described above. When the tumor volume reached ~120 mm^3, mice were randomized into uniform groups (5 mice per group) and the compound then administered. […] Tumor volume was monitored every second day and calculated using the formula: TV = (a^2×b)/2, where “a” is the short axis in millimeters, and “b” is the long axis in millimeters. Body weight was assessed every day.

FLT3 (ITD) [5] = biological target: FLT3 (ITD) (Homo sapiens, UniProt P36888, ITD); experiment: KINOMEscan Kd (DiscoverX); format: binding
Protocol: (§2) Dissociation constants (Kd) and inhibition levels of FLT3 mutants were measured at DiscoverX using the KINOMEscan^TM Profiling Service (KdELECT).

FLT3 (ITD) [6] = biological target: FLT3 (ITD) (Homo sapiens, UniProt P36888); experiment: KINOMEscan Kd (DiscoverX); format: binding; conditions: comparison of Kd
Protocol: as §2

T1 sequence (P11712 whole entry, canonical isoform): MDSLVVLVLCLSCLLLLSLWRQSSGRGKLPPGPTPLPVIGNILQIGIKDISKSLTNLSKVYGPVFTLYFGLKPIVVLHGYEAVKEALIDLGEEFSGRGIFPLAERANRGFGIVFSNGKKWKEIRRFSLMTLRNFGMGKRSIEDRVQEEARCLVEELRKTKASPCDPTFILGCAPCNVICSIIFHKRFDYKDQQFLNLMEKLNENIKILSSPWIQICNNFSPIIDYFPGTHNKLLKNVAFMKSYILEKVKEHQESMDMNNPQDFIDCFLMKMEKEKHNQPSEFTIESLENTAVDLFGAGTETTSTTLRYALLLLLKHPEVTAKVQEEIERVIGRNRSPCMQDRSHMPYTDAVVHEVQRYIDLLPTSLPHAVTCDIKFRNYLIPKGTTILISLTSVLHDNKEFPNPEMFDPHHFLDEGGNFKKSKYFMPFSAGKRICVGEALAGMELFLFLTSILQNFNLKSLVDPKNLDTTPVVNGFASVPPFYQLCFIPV
FLT3 (ITD) (Homo sapiens, UniProt P36888, ITD), sequence (P36888 564-993, stated change not applied): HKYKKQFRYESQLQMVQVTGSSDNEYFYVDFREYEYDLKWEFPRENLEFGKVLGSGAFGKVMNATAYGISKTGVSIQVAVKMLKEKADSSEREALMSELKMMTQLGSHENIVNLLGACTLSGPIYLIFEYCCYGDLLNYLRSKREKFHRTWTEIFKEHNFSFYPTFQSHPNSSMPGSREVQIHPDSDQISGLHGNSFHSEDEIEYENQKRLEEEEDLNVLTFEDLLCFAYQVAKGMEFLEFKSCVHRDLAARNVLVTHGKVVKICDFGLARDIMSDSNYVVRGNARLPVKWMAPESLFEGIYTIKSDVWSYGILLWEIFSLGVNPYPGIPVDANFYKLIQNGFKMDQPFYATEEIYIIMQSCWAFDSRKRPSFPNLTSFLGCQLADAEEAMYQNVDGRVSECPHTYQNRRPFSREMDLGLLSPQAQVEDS
FLT3 (ITD) (Homo sapiens, UniProt P36888), sequence (P36888 564-993, change not shown): as the sequence (P36888 564-993, stated change not applied) above

CC(C)n1c(C2CCNCC2)nc2c([N+](=O)[O-])c(Br)c(Br)cc21 [SEL24-B489, 5,6-dibromo-4-nitro-2-(piperidin-4-yl)-1-(propan-2-yl)-1H-1,3-benzodiazole]
TGI (KG-1 (FLT3-WT) tumor): ~ 50% | IC50 (CYP2C9): > 150000 nM | pharmacological interaction with AraC (MV-4-11): marked synergy | pharmacological interaction with vosaroxin (MV-4-11): marked synergy | GI50 (SKM-1): 732 nM | CC50 (SKM-1; read-out: LC50): 7770 nM | GI50 (PL-21): 1710 nM | IC50 [1]: 1 nM | IC50 [2]: 3 nM | IC50 [3]: 35 nM | IC50 [4]: 31 nM | TGI (MOLM-16 (FLT3-WT) tumor; MOLM-16, 25 mg/kg BID): ~ 100% | TGI (MOLM-16 (FLT3-WT) tumor; MOLM-16, 50 mg/kg EOD): 79% | TGI (MOLM-16 (FLT3-WT) tumor; MOLM-16, 50 mg/kg QD): ~ 100% | Kd (FLT3 (ITD) [5]): 16 nM | stronger inhibitor binding to FLT3-ITD than to FLT3-WT (FLT3 (ITD) [6]): 10 fold
